Test: molar heat capacity at constant pressure
Conditions: 101.33 kPa, Vacuum adiabatic calorimetry

C(#Cc1ccccc1)c1ccccc1 [1,2-diphenylethyne]
molar heat capacity at constant pressure [J/K/mol]
Conditions | Crystal | Liquid
122.93 K | 102.01 | –
123.75 K | 102.53 | –
124.57 K | 103.09 | –
125.39 K | 103.65 | –
126.22 K | 103.97 | –
127.04 K | 104.54 | –
127.87 K | 104.88 | –
128.69 K | 105.58 | –
129.52 K | 106.14 | –
130 K | 106.33 | –
130.34 K | 106.59 | –
131.19 K | 107.21 | –
132.02 K | 107.62 | –
132.85 K | 107.99 | –
133.68 K | 108.55 | –
134.51 K | 108.88 | –
135.34 K | 109.34 | –
136.17 K | 110.18 | –
137.01 K | 110.88 | –
137.84 K | 111.19 | –
138.67 K | 111.61 | –
139.51 K | 112.13 | –
140 K | 112.5 | –
140.35 K | 112.75 | –
141.18 K | 113.14 | –
142.02 K | 113.86 | –
142.86 K | 114.26 | –
143.7 K | 114.81 | –
144.56 K | 115.47 | –
145.4 K | 115.88 | –
146.24 K | 116.41 | –
147.08 K | 117.03 | –
147.93 K | 117.53 | –
148.77 K | 118.01 | –
149.61 K | 118.61 | –
150 K | 118.79 | –
150.46 K | 119.09 | –
151.31 K | 119.49 | –
152.15 K | 120.1 | –
153 K | 120.73 | –
153.85 K | 121.21 | –
154.7 K | 121.63 | –
155.55 K | 122.47 | –
156.4 K | 122.86 | –
157.25 K | 123.14 | –
158.14 K | 124.01 | –
158.99 K | 124.43 | –
159.85 K | 125.3 | –
160 K | 125.14 | –
160.7 K | 125.66 | –
161.56 K | 125.9 | –
162.42 K | 126.63 | –
163.28 K | 127.28 | –
164.14 K | 127.86 | –
165 K | 128.31 | –
165.86 K | 128.78 | –
166.72 K | 129.29 | –
167.58 K | 130.02 | –
168.45 K | 130.59 | –
169.31 K | 131.32 | –
170 K | 131.53 | –
170.18 K | 131.71 | –
171.05 K | 132.15 | –
171.96 K | 132.79 | –
172.83 K | 133.42 | –
173.7 K | 133.85 | –
174.57 K | 134.6 | –
175.44 K | 135.11 | –
176.31 K | 135.5 | –
177.19 K | 135.99 | –
178.06 K | 136.73 | –
178.94 K | 137.42 | –
179.82 K | 137.82 | –
180 K | 138 | –
180.7 K | 138.43 | –
181.58 K | 138.91 | –
182.46 K | 139.54 | –
183.34 K | 140.11 | –
184.22 K | 140.8 | –
185.11 K | 141.42 | –
186.05 K | 142.12 | –
186.93 K | 142.62 | –
187.82 K | 143.19 | –
188.71 K | 143.74 | –
189.6 K | 144.35 | –
190 K | 144.57 | –
190.5 K | 144.84 | –
191.39 K | 145.31 | –
192.29 K | 146.01 | –
193.18 K | 146.68 | –
194.08 K | 147.37 | –
194.98 K | 147.95 | –
196.78 K | 149.26 | –
197.68 K | 149.46 | –
198.59 K | 150.29 | –
199.5 K | 151.03 | –
200 K | 151.06 | –
200.7 K | 151.27 | –
202.04 K | 151.99 | –
203.39 K | 152.98 | –
204.73 K | 154.54 | –
206.08 K | 154.9 | –
207.42 K | 155.84 | –
208.77 K | 156.73 | –
210 K | 157.57 | –
210.11 K | 157.51 | –
211.46 K | 158.55 | –
212.8 K | 159.5 | –
214.14 K | 160.32 | –
215.49 K | 161.29 | –
216.83 K | 162.37 | –
218.17 K | 163 | –
219.51 K | 164.34 | –
220 K | 164.63 | –
220.86 K | 165.39 | –
222.28 K | 166.49 | –
223.62 K | 167.21 | –
224.96 K | 168.09 | –
226.3 K | 169.06 | –
227.64 K | 170.12 | –
228.97 K | 171 | –
230 K | 171.85 | –
230.31 K | 171.96 | –
231.65 K | 173.01 | –
232.99 K | 173.91 | –
234.32 K | 174.98 | –
235.65 K | 175.95 | –
236.99 K | 176.85 | –
238.33 K | 177.98 | –
239.66 K | 179.01 | –
240 K | 179.11 | –
240.99 K | 179.99 | –
242.32 K | 180.88 | –
243.73 K | 181.99 | –
245.07 K | 182.85 | –
246.4 K | 183.79 | –
247.73 K | 184.64 | –
249.06 K | 185.75 | –
250 K | 186.45 | –
250.39 K | 185.54 | –
251.71 K | 187.74 | –
253.03 K | 188.91 | –
254.36 K | 189.53 | –
255.68 K | 190.6 | –
257 K | 191.87 | –
258.32 K | 192.68 | –
259.65 K | 193.82 | –
260 K | 193.93 | –
260.97 K | 194.81 | –
262.28 K | 195.65 | –
263.6 K | 197.01 | –
264.98 K | 198.01 | –
266.3 K | 198.7 | –
267.61 K | 199.72 | –
268.93 K | 200.72 | –
270 K | 201.56 | –
270.24 K | 201.85 | –
271.55 K | 202.64 | –
272.86 K | 203.72 | –
274.17 K | 204.75 | –
275.47 K | 205.78 | –
276.77 K | 206.87 | –
278.07 K | 207.63 | –
279.37 K | 208.98 | –
280 K | 209.29 | –
280.67 K | 209.89 | –
281.97 K | 210.65 | –
283.26 K | 211.51 | –
284.56 K | 212.46 | –
285.9 K | 213.85 | –
287.2 K | 214.7 | –
288.49 K | 216.02 | –
289.78 K | 216.96 | –
290 K | 216.99 | –
291.06 K | 217.78 | –
292.34 K | 219.03 | –
293.62 K | 219.44 | –
294.9 K | 220.27 | –
296.17 K | 221.66 | –
297.45 K | 223.35 | –
298.15 K | 223.14 | –
298.72 K | 223.61 | –
299.98 K | 224.36 | –
300 K | 224.51 | –
301.47 K | 225.51 | –
303.12 K | 227.1 | –
304.78 K | 228.38 | –
306.45 K | 228.99 | –
308.12 K | 230.51 | –
309.79 K | 231.08 | –
310 K | 231.76 | –
311.46 K | 232.91 | –
313.14 K | 234.02 | –
314.83 K | 234.92 | –
316.52 K | 236.14 | –
318.22 K | 238.29 | –
319.93 K | 238.52 | –
320 K | 238.87 | –
321.63 K | 240.17 | –
323.34 K | 241.21 | –
325.06 K | 242.48 | –
330 K | 245.96 | –
332.03 K | 247.4 | 302
340 K | – | 303.79
348.64 K | – | 304.58
348.68 K | – | 305.37
350 K | – | 306.04
350.47 K | – | 306.11
350.59 K | – | 307.42
352.28 K | – | 307.07
352.61 K | – | 306.03
354.1 K | – | 304.34
354.59 K | – | 307.75
355.9 K | – | 307.73
356.6 K | – | 308.43
357.73 K | – | 308.85
358.63 K | – | 305.76
359.56 K | – | 309.14
360 K | – | 308.41
360.65 K | – | 308.73
361.57 K | – | 306.43
362.7 K | – | 310.22
363.41 K | – | 309.69
364.77 K | – | 310.47
365.26 K | – | 310.84
367.13 K | – | 305.78
367.19 K | – | 311.76
369.03 K | – | 310.48
369.32 K | – | 308.58
370 K | – | 309.93
370.91 K | – | 308.47
371.44 K | – | 311.8
